Test results taken from patent EP4700040A1, “PEPTIDE AND LUMINESCENT COMPLEX CONTAINING SAME” (Shenzhen Loggene Life Science & Technology Co., Ltd., priority 2023, dated 2024).

Assays:
Type in all cases: biochemical, human
PCT [1] = assay: Luciferase dual-antibody complementary activation assay for PCT detection, clone supernatants, retest with CTZ-h (Example 1); conditions: for Signal-to-noise ratio: RLU antigen+/RLU antigen-, MBP-PCT 3.3 ng/ml, CTZ-h; for PCT+: luminescence signal value with MBP-PCT 3.3 ng/ml, large subunit-rSCFV5 50 nM, supernatant; for PCT+ / PCT-: retest CTZ-h 25 µM, read after 60 s; for PCT-: luminescence signal value, background control PBSAD without PCT
Description: In order to improve the signal-to-noise ratio and complementary activity of the luciferase dual-antibody complementary activation assay, a series of complementary luciferase small subunits were prepared in this example. Large subunit-rSCFV5 fusion protein (SEQ ID NO: 87) was kept unchanged, and the small subunit sequence of the rSCFV18-small subunit P114 fusion protein (SEQ ID NO: 88) was modified by semi-randomization to prepare rSCFV18-small subunit mutant fusion proteins. Based on the sequence of small subunit P114, and with reference to the 3D structure of complementary luciferase, computer-aided sequence design was employed to generate a library with a theoretical diversity of 2.49*10^6. Primers were designed for PCR amplification using the plasmid pComb3x of rSCFV18-small subunit P114 fusion protein as a template. Subsequently, an expression vector library was constructed by means of restriction digestion and ligation (SfiI, NheI), and a semi-random amino acid mutation library was introduced into the small subunit position and transformed into HB2151 competent cells, yielding a library capacity of 7.6*10^9. The 100 plates were spread, and 9,500 single clones were picked and inoculated into 600 µL of 2YTA medium, followed by incubation at 37°C with shaking at 250 rpm for 2 h. When the bacterial density reached approximately OD600 = 0.6~1.0, IPTG was then added to a final concentration of 1 mM, and the culture was further incubated at 30°C with shaking at 250 rpm for 20 h. The next day, the bacteria were collected by centrifugation at 4°C, 4,500g for 10min. The supernatant was discarded, and the precipitate was resuspended with 200µl of PBS containing polymyxin B at a final concentration of 20,000 u/ml. The suspension was incubated at room temperature with shaking at 100rpm for 1h, and then centrifuged at 4500g for 10min, and the supernatant was used for the test.
Test Methods: • (1) The concentration of large subunit-rSCFV5 fusion protein was diluted to 50 nM, and 15 µl was added per well; • (2) MBP-PCT fusion protein was diluted to 3.3 ng/ml with PBSAD, and 15 µl was added per well. The background control was PBSAD, and 10 µl was added per well; • (3) HB2151 strain containing expression plasmids with different small subunit were induced by 1 mM of IPTG at 30°C overnight, then treated with polymyxin B for 1.5 h, and centrifuged to collect the supernatant, and 2.5 µl supernatant was added per well; • (4) The above three components were slightly mixed, incubated at 37°C for 7 min, and Obuffer 6.37-3 containing Furimazine at a concentration of 25 µM was added, and after 80 s, the luminescence signal value was detected using a bioluminescence detector; and • (5) Clones with RLU higher than 10,000 and a signal-to-noise ratio (RLU antigen+/RLU antigen-) higher than that of the rSCFV18-small subunit P114 fusion protein were selected for retesting. The substrate was replaced with CTZ-h for retesting. Obuffer 6.37-3 containing CTZ-h at a concentration of 25 µM was added, and after 60 s, the luminescence signal value was detected using a bioluminescence detector.

PCT [2] = assay: Complementary activity of small subunits mutated at conserved positions, Furimazine substrate (Example 6); conditions: MBP-PCT 3.3 ng/ml, supernatant; for activity (luminescence signal value), 3 min: 3 min after Furimazine 25 µM; for activity (luminescence signal value), 6 min: 6 min after Furimazine 25 µM
Description: Detection Methods: • (1) The concentration of large subunit-rSCFV5 fusion protein was diluted to 12.5 nM, and 15 µl was added per well; • (2) MBP-PCT fusion protein was diluted to 3.3 ng/ml with PBSAD, and 10 µl was added per well; • (3) HB2151 strain containing plasmids with different small subunit sequences were induced by IPTG at 30°C overnight, then treated with polymyxin B for 1.5h, and centrifuged to collect the supernatant, and 2.5µl supernatant was added per well; • (4) The above three components were slightly mixed, incubated at 37°C for 7 min, and Obuffer 6.37-3 containing Furimazine at a concentration of 25 µM was added, […], the luminescence signal value was detected using a bioluminescence detector; and • (5) Clones with RLU higher than 10,000 were picked. The substrate was replaced with CTZ-h substrate for retesting (Obuffer 6.37-3 containing CTZ-h at a concentration of 25 µM was added, and after 60 s, the luminescence signal value was detected using a bioluminescence detector), and a PBSAD control was added to test the signal-to-noise ratio.
In order to further determine whether these three conserved amino acid sequences were changed, this example constructed a random mutation library of these three positions, with a theoretical diversity of 8,000 and a library capacity of 10^6, and 2,000 single clones were picked. The method of protein induction and expression was the same as that in Example 1. The complementary activity was tested in the same manner as that in Example 4, but the signal-to-noise ratio was not retested with CTZ-h. Clones with different activity were randomly picked for sequencing.

PCT [3] = assay: Sensitivity and linear range for PCT detection of preferred small subunits (Example 5); conditions: for luminescence value: normalized
Description: Detection Methods: • (1) The concentration of large subunit-rSCFV5 fusion protein was diluted with PBSA to 8.3~25nM, and 15µl was added per well; • (2) MBP-PCT fusion proteins were diluted with PBSAD in a downward gradient starting from 2.5 µg/ml, and 10 µl was added per well; • (3) The rSCFV18-small subunit mutant-containing fusion protein was diluted with PBSA to 30~180 nM, and 15 µl was added per well; • (4) The above three components were slightly mixed, incubated at 37°C for 15 min, and Obuffer 6.37-3 containing CTZ-h at a concentration of 15 µM was added, and the luminescence signal value was immediately detected using a bioluminescence detector (the luminescence value was normalized);

PCT [4] = assay: Second library screening for PCT detection, clone supernatants, retest with CTZ-h (Example 4)
Description: In order to further improve the signal-to-noise ratio and complementary activity of the luciferase dual-antibody complementary activation assay, novel complementary luciferase small subunits were prepared in this example. Large subunit-rSCFV5 fusion protein (SEQ ID NO: 87) was kept unchanged, and the small subunit sequence of the rSCFV18-RB073 fusion protein (SEQ ID NO: 89) were modified by semi-randomization. The theoretical diversity was 6912, the library capacity was 10^6, and 3,000 single clones were picked. The method of protein induction and expression was the same as that in Example 2.
Detection Methods: • (1) The concentration of large subunit-rSCFV5 fusion protein was diluted to 12.5 nM, and 15 µl was added per well; • (2) MBP-PCT fusion protein was diluted to 3.3 ng/ml with PBSAD, and 10 µl was added per well; • (3) HB2151 strain containing plasmids with different small subunit sequences were induced by IPTG at 30°C overnight, then treated with polymyxin B for 1.5h, and centrifuged to collect the supernatant, and 2.5µl supernatant was added per well; • (4) The above three components were slightly mixed, incubated at 37°C for 7 min, and Obuffer 6.37-3 containing Furimazine at a concentration of 25 µM was added, and after 3 min, the luminescence signal value was detected using a bioluminescence detector; and • (5) Clones with RLU higher than 10,000 were picked. The substrate was replaced with CTZ-h substrate for retesting (Obuffer 6.37-3 containing CTZ-h at a concentration of 25 µM was added, and after 60 s, the luminescence signal value was detected using a bioluminescence detector), and a PBSAD control was added to test the signal-to-noise ratio.

Sequence | Signal-to-noise ratio (PCT [1]) | PCT+ (PCT [1]) | PCT- (PCT [1]) | activity (luminescence signal value), 3 min (PCT [2]) | activity (luminescence signal value), 6 min (PCT [2]) | further results
VEGYRLFERIW [RB240] | 35.3 | 50183 | 1384 | – | – | –
VEGYRLFEKKL [RB149] | 21 | 79060 | 3587 | – | – | –
VEGYRLFERKL [RB157] | 25.2 | 74319 | 2837 | – | – | –
AEGYRLFDRKS [RD-045] | – | – | – | 2398 | 2087 | –
IEGYRLFDRKS [RD-084] | – | – | – | 2497 | 2394 | –
VEGYRLFKREL [RB152] | 40 | 37150 | 906 | – | – | –
VEGYRLFERKS [RB033] | 25.7 | 109352 | 4101 | – | – | –
VEGYRLFDRKL [RB212] | 33.6 | 33103 | 957 | – | – | –
VEGYRLFNRKS [RB252] | 20.3 | 70963 | 3324 | – | – | –
VEGYRLFERIW [RB113] | 31.3 | 57092 | 1769 | – | – | –
AEGYRLFDRKS [RD-086] | – | – | – | 3394 | 3222 | –
VEGYRLFNKKS [RB054] | 25.7 | 92160 | 3449 | – | – | –
VDGWRLFDKKS [RC-224] | – | – | – | – | – | luminescence value (PCT [3]; PCT 0.0, background): 5000; luminescence value (PCT [3]; PCT 1 (pg/ml)): 5021; luminescence value (PCT [3]; PCT 3 (pg/ml)): 5002; luminescence value (PCT [3]; PCT 10 (pg/ml)): 5260; luminescence value (PCT [3]; PCT 30 (pg/ml)): 5685; luminescence value (PCT [3]; PCT 100 (pg/ml)): 7341; luminescence value (PCT [3]; PCT 1000 (pg/ml)): 28543; luminescence value (PCT [3]; PCT 10000 (pg/ml)): 240337; luminescence value (PCT [3]; PCT 100000 (pg/ml)): 1453897; luminescence value (PCT [3]; PCT 250000 (pg/ml)): 1856339; Signal-to-noise ratio at 1000 pg/ml (PCT [3]; large subunit 8.3~25 nM, small subunit fusion 30~180 nM, CTZ-h 15 µM): 5.7; Signal-to-noise ratio (PCT [4]; PCT+/PCT-, MBP-PCT 3.3 ng/ml, CTZ-h): 9.2; PCT+ (PCT [4]; luminescence signal value with MBP-PCT 3.3 ng/ml, large subunit-rSCFV5 12.5 nM, CTZ-h 25 µM, 60 s): 10561; PCT- (PCT [4]; luminescence signal value, PBSAD control without PCT, large subunit-rSCFV5 12.5 nM, CTZ-h 25 µM, 60 s): 1142
VEGYRLFERKS [RB097] | 21 | 95553 | 4346 | – | – | –
VEGYRLFERKW [RB035] | 31.6 | 58318 | 1790 | – | – | –
VEGYRLFNRKW [RB223] | 34.7 | 39231 | 1099 | – | – | –
VEGYRLFDRKL [RB209] | 33.6 | 37398 | 1080 | – | – | –
VEGYRLFEKVW [RB172] | 36.9 | 41446 | 1094 | – | – | –

Sequence | Signal-to-noise ratio (PCT [1]) | PCT+ (PCT [1]) | PCT- (PCT [1]) | activity (luminescence signal value), 3 min (PCT [2]) | activity (luminescence signal value), 6 min (PCT [2]) | further results
VEGYRLFERVL [RB150] | 32.1 | 53945 | 1630 | – | – | –
VEGYRLFDRKW [RB186] | 45.1 | 27190 | 590 | – | – | –
AEGYHLFRSKS [RD-108] | – | – | – | 50 | 53 | –
AESYKLFDRKS [RD-100] | – | – | – | 44 | 214 | –
VEGYRLFDRVW [RB128] | 38.8 | 26168 | 658 | – | – | –
VEGYRLFNRKS [RB075] | 27.1 | 76733 | 2735 | – | – | –
VEGYRLFNEKS [RB195] | 30.8 | 41519 | 1307 | – | – | –
VEGYRLHEKIS [RA128] | 45.2 | 17891 | 387 | – | – | –
IEGYRLFDRKS [RD-092] | – | – | – | 4905 | 4539 | –
VEGYRLFNRVG [RB122] | 20.2 | 55355 | 2605 | – | – | –
VEGYRLFERKW [RB276] | 35 | 44654 | 1242 | – | – | –
VEGYRLFNRVS [RB027] | 22.6 | 101765 | 4316 | – | – | –
AEPYRIFDRKS [RD-099] | – | – | – | 221 | 52 | –
VEPYKLFDRKS [RD-098] | – | – | – | 214 | 49 | –
VEGYHLFDRKS [RD-103] | – | – | – | 211 | 204 | –
VEPYKLFDRKS [RD-104] | – | – | – | 215 | 222 | –
AEGYRLFDRKS [RD-012] | – | – | – | 3586 | 2963 | –
